Assay results reported in PubChem BioAssay AID1996.
Converted amounts (≈) assume the structure as drawn.

Conditions: buffer; pH 7.4; 200.0 µM
A solubility kinetic of 15.5 µg/mL (≈ 53.9 µM) was found for COc1ccc(NC(=S)NC(=O)c2cccnc2)cc1 in this work.
A solubility kinetic of 0.6 µg/mL (≈ 1.54 µM) was found for CCOC(=O)c1sc(NC(=O)CSC(=S)N2CCOCC2)nc1C in this work.
A solubility kinetic of less than 0.4 µg/mL was found for Cc1ccc(NC(=O)CCn2c(=S)oc3ccccc32)cc1F in this work.
A solubility kinetic of 40.6 µg/mL (≈ 145 µM) was found for CC(=O)N1c2ccc(C)cc2C(c2ccccc2)CC1C (centres undefined) in this work.
A solubility kinetic greater than 24.9 µg/mL was found for Cn1c(=O)[nH]c2nc[nH]c2c1=O in this work.
A solubility kinetic of 6 µg/mL (≈ 22.4 µM) was found for COc1ccc(CN2C(=O)c3ccccc3C2=O)cc1 in this work.
A solubility kinetic greater than 46.9 µg/mL was found for CCCn1c(SCC(=O)NC2CCC(C)CC2)n[nH]c1=O (centres undefined) in this work.
A solubility kinetic of 5.9 µg/mL (≈ 15.8 µM) was found for CCc1cc(C(=O)c2ccc(OC)cc2)c(NC(=O)CN2CCCC2)s1 in this work.
A solubility kinetic greater than 47.3 µg/mL was found for NC(=O)Cn1cc(C(=O)C(=O)N2CCOCC2)c2ccccc21 in this work.
A solubility kinetic greater than 42.5 µg/mL was found for CC1(C)CC(NC(=O)c2c(N)no[n+]2[O-])CC(C)(C)N1 in this work.
A solubility kinetic greater than 41 µg/mL was found for Cc1c(C(=O)N/N=C/c2ccoc2)cccc1[N+](=O)[O-] in this work.
A solubility kinetic of 44.5 µg/mL (≈ 130 µM) was found for COc1ccc(C(=O)NCCCNC(=O)c2cccnc2)cc1OC in this work.
A solubility kinetic of 1.4 µg/mL (≈ 4.84 µM) was found for Cc1noc(C(=O)Nc2ccc(F)c(Cl)c2)c1Cl in this work.
A solubility kinetic of 9.7 µg/mL (≈ 27.8 µM) was found for COc1ccc(S(=O)(=O)N2CCCc3ccccc32)cc1[N+](=O)[O-] in this work.
A solubility kinetic of 29.3 µg/mL (≈ 103 µM) was found for Nc1nc(CCl)nc(Nc2ccc3ccccc3c2)n1 in this work.
A solubility kinetic of 50.2 µg/mL (≈ 149 µM) was found for CC1C(=O)N2CCCc3cc(NC(=O)COc4ccccc4)cc1c32 (centres undefined) in this work.
A solubility kinetic of 32.3 µg/mL (≈ 117 µM) was found for CCOC(=O)c1csc(-c2ccc3c(c2)CCO3)n1 in this work.
A solubility kinetic of 16.3 µg/mL (≈ 48.9 µM) was found for COC(=O)c1ccc(COC(=O)CNC(=O)C2CCCCC2)cc1 in this work.
A solubility kinetic greater than 46.7 µg/mL was found for Cc1cccc(N2CCCn3c2nc2c3c(=O)[nH]c(=O)n2C)c1 in this work.
A solubility kinetic greater than 61.7 µg/mL was found for COc1ccc(CCNC(=O)COC(=O)c2cc3ccccc3oc2=O)cc1OC in this work.
A solubility kinetic greater than 43.1 µg/mL was found for O=C(CNC(=O)c1ccc(F)cc1)NCc1ccccn1 in this work.
A solubility kinetic of 6.1 µg/mL (≈ 17.9 µM) was found for Cc1ccc(C)c(OCC(=O)Nc2ccc(N3CCOCC3)cc2)c1 in this work.
A solubility kinetic greater than 46.4 µg/mL was found for CCOC(=O)CSC1=NN2CCS(=O)(=O)N=C2S1 in this work.
A solubility kinetic of 47.5 µg/mL (≈ 140 µM) was found for CN(C(=O)COC(=O)/C=C/c1ccccc1[N+](=O)[O-])c1ccccc1 in this work.
A solubility kinetic greater than 36.5 µg/mL was found for Clc1ccc(COn2ccnc2)cc1Cl in this work.
A solubility kinetic greater than 47.5 µg/mL was found for CC(CCc1ccccc1)NC(=O)CNC(=O)c1cccs1 (centres undefined) in this work.
A solubility kinetic of 33.8 µg/mL (≈ 102 µM) was found for CS(=O)(=O)c1ccccc1C(=O)Nc1ccc2sccc2c1 in this work.
A solubility kinetic of 0.8 µg/mL (≈ 2.49 µM) was found for O=C(Cc1c(F)cccc1Cl)Nc1nc2ccccc2s1 in this work.
A solubility kinetic of 2 µg/mL (≈ 6.4 µM) was found for C=CCOn1c(=O)c(-c2ccc(F)cc2)[n+]([O-])c2ccccc21 in this work.
A solubility kinetic greater than 41.5 µg/mL was found for O=C(CSc1nc2ccccc2o1)NC1CCCC1 in this work.
A solubility kinetic of 3.3 µg/mL (≈ 6.36 µM) was found for Cc1ccc(S(=O)(=O)N2CCN(C(=O)CN3C(=O)NC(C)(c4ccc(Cl)cc4)C3=O)CC2)c(C)c1 (centres undefined) in this work.
A solubility kinetic of 0.9 µg/mL (≈ 2.73 µM) was found for Cc1ncc([N+](=O)[O-])n1CC(=O)Nc1cc(Cl)ccc1Cl in this work.
A solubility kinetic of 33.9 µg/mL was found for NC(=O)c1ccc(/C=N/O)[n+](Cc2ccccc2)c1.[Br-] in this work.
A solubility kinetic of 31.6 µg/mL (≈ 127 µM) was found for O=C1CNC(=S)N1c1nc2ccccc2s1 in this work.
A solubility kinetic of 4 µg/mL (≈ 11.5 µM) was found for CC(=O)Nc1ccc2nc(NC(=O)c3ccc([N+](=O)[O-])o3)sc2c1 in this work.
A solubility kinetic of 25.9 µg/mL (≈ 92.1 µM) was found for O=c1c(Cc2ccccc2)c(O)ccn1Cc1ccco1 in this work.
A solubility kinetic of less than 0.7 µg/mL was found for COc1ccc2c(c1)c(C(C)=O)c(C)n2CCc1ccccc1 in this work.
A solubility kinetic greater than 45.2 µg/mL was found for CC#CC(=O)N1CCCC(C(=O)c2ccc(SC)cc2)C1 (centres undefined) in this work.
A solubility kinetic greater than 58.7 µg/mL was found for Cc1ccc(N(Cc2ccccc2)C(=O)CN2C(=O)NC3(CCCC3)C2=O)cc1 in this work.
A solubility kinetic of 3.3 µg/mL (≈ 10.7 µM) was found for COC(=O)C1=C(C)N(c2ccccc2)/C(=C/c2ccco2)C1=O in this work.
A solubility kinetic greater than 42.7 µg/mL was found for CCSc1nnc(NC(=O)c2c(C)noc2C)s1 in this work.
A solubility kinetic of 39.3 µg/mL (≈ 122 µM) was found for Cc1sc2ncnc(SCC(=O)N3CCOCC3)c2c1C in this work.
A solubility kinetic of 2.5 µg/mL (≈ 5.44 µM) was found for CCc1ccc(C(=O)Nc2cc(S(=O)(=O)N3CCOCC3)ccc2N2CCOCC2)cc1 in this work.
A solubility kinetic of 2.2 µg/mL (≈ 5.92 µM) was found for Cc1cccc(NC(=O)c2ccc3c(c2)C(=O)N(c2ccccn2)C3=O)c1C in this work.
A solubility kinetic of 3.9 µg/mL (≈ 10.3 µM) was found for Cc1ccc(NC(=O)CN(C)C(=O)COc2cccc3ccc(C)nc23)cc1 in this work.
A solubility kinetic of 36.8 µg/mL (≈ 143 µM) was found for O=C(/C=C/c1ccco1)Nc1ccc2c(c1)OCO2 in this work.
A solubility kinetic of 5.2 µg/mL (≈ 20 µM) was found for Cc1cccc(NC(=O)NC2CCCCCCC2)c1 in this work.
A solubility kinetic of 5.8 µg/mL (≈ 19.1 µM) was found for CCOc1ccc(CO/N=C/c2c(C)[nH]c(=O)[nH]c2=O)cc1 in this work.
A solubility kinetic of 39.7 µg/mL (≈ 115 µM) was found for Cc1ncc(CN2CCN(CCc3ccccc3)C(CCO)C2)s1 (centres undefined) in this work.
A solubility kinetic greater than 36.5 µg/mL was found for CCN(CC)C(=N)/C(C#N)=N/Nc1ccccc1 in this work.
A solubility kinetic greater than 49 µg/mL was found for O=C(NCC(=O)N1CCCCCC1)c1ccc(OC(F)F)cc1 in this work.
A solubility kinetic greater than 31.5 µg/mL was found for Nc1nc(F)cc(N2CCCCCC2)n1 in this work.
A solubility kinetic of 6.5 µg/mL (≈ 17 µM) was found for COC(=O)Cc1ccc(NC(=S)N2CCC(Cc3ccccc3)CC2)cc1 in this work.
A solubility kinetic greater than 51.2 µg/mL was found for O=C(CN1C(=O)c2ccccc2C1=O)Nc1cc([N+](=O)[O-])ccc1O in this work.
A solubility kinetic greater than 47.9 µg/mL was found for O=C(c1ccc(N2CCOCC2)c([N+](=O)[O-])c1)N1CCCCC1 in this work.
A solubility kinetic greater than 55.6 µg/mL was found for COc1ccc(CC(=O)NC2CC(C)(C)NC(C)(C)C2)cc1OC.Cl in this work.
A solubility kinetic of 0.4 µg/mL (≈ 1.25 µM) was found for Cc1ccc(CNC(=O)CCCc2cn(C)c3ccccc23)cc1 in this work.
A solubility kinetic of 25.8 µg/mL (≈ 81.3 µM) was found for CC(=O)c1ccc(OCCCC(=O)NC2CCCCC2C)cc1 (centres undefined) in this work.
A solubility kinetic of 19.2 µg/mL (≈ 53.6 µM) was found for O=C(COC(=O)CC1CCCC1)Nc1ccc(Br)cc1F in this work.
